Bridge positions count the residues as written; N and C are the ends. Square brackets hold non-standard residues; d marks the D form. Peptide text beside a SMILES is read from it. dDap = NC[C@@H](N)C(=O)O; Dab = NCC[C@H](N)C(=O)O
Experiments:
[1] = system: IL-8; test: In vitro chemotaxis, inhibition v IL-8; type: cell-based, human; set-up: concentration or dose not given beside the values
Method: To determine whether an agent inhibits a chemokine-induced activity, such as macrophage recruitment, varying amounts of the agent are mixed with cells in the presence of a known chemoattractant. For example, a range of known concentrations of an agent, e.g., a chemokine peptide, is incubated with a defined number (e.g., 10^4-10^6) of human THP-1 monocyte cells in individual wells of the top compartment of a trans-well plate. Chemokine, at a concentration known to cause significant migration of THP-1 cells in the trans-well migration assay, is placed in the lower compartment of a trans-well plate. Cells are then incubated at 37° C. for a period sufficient to allow migration, e.g., 4 hours. After incubation, the cells are gently removed from the top of the filter with a pipette, 20 μl of 20 mM EDTA in simple PBS is added into each top well, and incubated for 20 minutes at 4° C. The filter is carefully flushed with media using a gentle flow, and removed. A standard curve consisting of a two-fold dilution series of THP-1 cells (in 29 μl) is placed to accurately quantify the number of cells that have migrated. Migrated cells are stained with 3 μl of MTT stock dye solution which is added directly into each well (5 mg/ml in RPMI-1640 without phenol red) (Sigma Chemical Co., St. Louis, Mo., USA) and incubated at 37° C. for 4 hours. The media is carefully aspirated from each well, and the converted dye is solubilized by 20 μl of DMSO. Absorbance of converted dye is measured at a wavelength of 595 nm using an ELISA plate reader. The number of migrated cells in each well is then determined by interpolation of the standard curve (see also Imai et al., J. Biol. Chem., 272:15036, 1997). Any method suitable for counting cells can be used, for example, counting with a hemocytometer, incubation of the cells with MTT (see above), or FACS analysis. A negative control assay is also performed, using TGFβ or another non-chemokine chemoattractant (e.g., IL1β or TNFα). To assess whether the agent is cytotoxic, the same concentrations of agent are incubated with THP-1 cells. Agents which 1) are not cytotoxic at levels which inhibit migration, 2) are ineffective at inhibiting the negative control-induced migration, and 3) reduce or inhibit chemokine-induced THP-1 migration, are agents which fall within the scope of the invention.

[2] = system: MCP-1; test: In vitro chemotaxis (trans-well migration) v MCP-1; type: cell-based, human
Summary of the method: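 Human THP-1 monocytes (10^4-10^6) with agent at varying concentrations in upper trans-well chamber; IL-8 or MCP-1 in lower chamber at a migration-inducing concentration, 37° C for e.g. 4 hours. Migrated cells quantified by MTT (595 nm) against a THP-1 standard curve; cytotoxicity and non-chemokine chemoattractant controls run.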

SMILES | EC50 [2] [nM] | v IL-8 inhibition (%) [1] [%]
CC[C@H](C)[C@@H]1NC(=O)[C@H](Cc2c[nH]c3ccccc23)NC(=O)[C@H](CCCCN)NC(=O)[C@H](CCC(N)=O)NC(=O)[C@H](CCCCN)NC(=O)[C@@H]2CCCN2C(=O)[C@H](CC(=O)O)NC(=O)[C@@H](NC(=O)[C@@H](N)CC(C)C)CSSC[C@@H](C(N)=O)NC(=O)[C@H](CCC(N)=O)NC1=O [Example 10, Leu-c(Cys-Asp-Pro-Lys-Gln-Lys-Trp-Ile-Gln-Cys)-NH2] (H-LCDPKQKWIQC-NH2; disulfide 2-11) | 10 | 102.2
CC[C@H](C)[C@@H]1NC(=O)[C@H](Cc2c[nH]c3ccccc23)NC(=O)[C@H](CCCCN)NC(=O)[C@H](CCC(N)=O)NC(=O)[C@H](CCCCN)NC(=O)[C@@H]2CCCN2C(=O)[C@@H](NC(=O)[C@H](CC(=O)O)NC(=O)[C@@H](N)CC(C)C)CSSC[C@@H](C(N)=O)NC(=O)[C@H](CCC(N)=O)NC1=O [Example 11, Leu-Asp-c(Cys-Pro-Lys-Gln-Lys-Trp-Ile-Gln-Cys)-NH2] (H-LDCPKQKWIQC-NH2; disulfide 3-11) | 330 | 38.1
CC[C@H](C)[C@@H]1NC(=O)[C@@H](NC(=O)[C@H](Cc2c[nH]c3ccccc23)NC(=O)[C@H](CCCCN)NC(=O)[C@H](CCC(N)=O)NC(=O)[C@H](CCCCN)NC(=O)[C@@H]2CCCN2C(=O)[C@H](CC(=O)O)NC(=O)[C@@H](N)CC(C)C)CSSC[C@@H](C(N)=O)NC(=O)[C@H](CCC(N)=O)NC1=O [Example 14, Leu-Asp-Pro-Lys-Gln-Lys-Trp-c(Cys-Ile-Gln-Cys)-NH2] (H-LDPKQKWCIQC-NH2; disulfide 8-11) | 2000 | 10.5
CC[C@H](C)[C@@H]1NC(=O)[C@H](Cc2c[nH]c3ccccc23)NC(=O)[C@H](CCCCN)NC(=O)[C@H](CCC(N)=O)NC(=O)[C@H](CCCCN)NC(=O)[C@@H]2CCCN2C(=O)[C@H](CC(=O)O)NC(=O)[C@H](CC(C)C)NC(=O)[C@@H](NC(C)=O)CSSC[C@@H](C(=O)N[C@H](CN)C(N)=O)NC(=O)[C@H](CCC(N)=O)NC1=O [Example 16, Ac-c(Cys-Leu-Asp-Pro-Lys-Gln-Lys-Trp-Ile-Gln-Cys)-D-Dap-NH2] (Ac-CLDPKQKWIQC[dDap]-NH2; disulfide 1-11) | 800 | 19.8
CC[C@H](C)[C@@H]1NC(=O)[C@H](Cc2c[nH]c3ccccc23)NC(=O)[C@H](CCCCN)NC(=O)[C@H](CCC(N)=O)NC(=O)[C@H](CCCCN)NC(=O)[C@@H]2CCCN2C(=O)[C@H](CC(=O)O)NC(=O)[C@H](CC(C)C)NC(=O)[C@@H](NC(=O)[C@H](CC(=O)O)NC(C)=O)CSSC[C@@H](C(=O)N[C@H](CN)C(N)=O)NC(=O)[C@H](CCC(N)=O)NC1=O [Example 17, Ac-Asp-c(Cys-Leu-Asp-Pro-Lys-Gln-Lys-Trp-Ile-Gln-Cys)-D-Dap-NH2] (Ac-DCLDPKQKWIQC[dDap]-NH2; disulfide 2-12) | > 1000 | 15.5
CC[C@H](C)[C@@H]1NC(=O)[C@H](Cc2c[nH]c3ccccc23)NC(=O)[C@H](CCCCN)NC(=O)[C@H](CCC(N)=O)NC(=O)[C@H](CCCCN)NC(=O)[C@@H]2CCCN2C(=O)[C@H](CC(=O)O)NC(=O)[C@H](CC(C)C)NC(=O)[C@@H](NC(C)=O)CSSC[C@@H](C(=O)N[C@@H](CCN)C(N)=O)NC(=O)[C@H](CCC(N)=O)NC1=O [Example 18, Ac-c(Cys-Leu-Asp-Pro-Lys-Gln-Lys-Trp-Ile-Gln-Cys)-Dab-NH2] (Ac-CLDPKQKWIQC[Dab]-NH2; disulfide 1-11) | 20 | 103.5
CC[C@H](C)[C@@H]1NC(=O)[C@H](Cc2c[nH]c3ccccc23)NC(=O)[C@H](CCCCN)NC(=O)[C@@H](NC(=O)[C@H](CCC(N)=O)NC(=O)[C@H](CCCCN)NC(=O)[C@@H]2CCCN2C(=O)[C@H](CC(=O)O)NC(=O)[C@H](CC(C)C)NC(C)=O)CSSC[C@@H](C(N)=O)NC(=O)[C@H](CCC(N)=O)NC1=O [Example 23, Ac-Leu-Asp-Pro-Lys-Gln-c(Cys-Lys-Trp-Ile-Gln-Cys)-NH2] (Ac-LDPKQCKWIQC-NH2; disulfide 6-11) | > 1000 | 13.4

More lines, main results first:

EC50 [2] [nM] | SMILES | v IL-8 inhibition (%) [1] [%]
50 | CC[C@H](C)[C@@H]1NC(=O)[C@H](Cc2c[nH]c3ccccc23)NC(=O)[C@H](CCCCN)NC(=O)[C@@H](NC(=O)[C@H](CCC(N)=O)NC(=O)[C@H](CCCCN)NC(=O)[C@@H]2CCCN2C(=O)[C@H](CC(=O)O)NC(=O)[C@@H](N)CC(C)C)CSSC[C@@H](C(N)=O)NC(=O)[C@H](CCC(N)=O)NC1=O [Example 12, Leu-Asp-Pro-Lys-Gln-c(Cys-Lys-Trp-Ile-Gln-Cys)-NH2] (H-LDPKQCKWIQC-NH2; disulfide 6-11) | 94.8
8000 | CC[C@H](C)[C@@H]1NC(=O)[C@H](Cc2c[nH]c3ccccc23)NC(=O)[C@@H](NC(=O)[C@H](CCCCN)NC(=O)[C@H](CCC(N)=O)NC(=O)[C@H](CCCCN)NC(=O)[C@@H]2CCCN2C(=O)[C@H](CC(=O)O)NC(=O)[C@@H](N)CC(C)C)CSSC[C@@H](C(N)=O)NC(=O)[C@H](CCC(N)=O)NC1=O [Example 13, Leu-Asp-Pro-Lys-Gln-Lys-c(Cys-Trp-Ile-Gln-Cys)-NH2] (H-LDPKQKCWIQC-NH2; disulfide 7-11) | 5.8
3000 | CC[C@H](C)[C@@H]1NC(=O)[C@@H](NC(=O)[C@H](Cc2c[nH]c3ccccc23)NC(=O)[C@@H](N)CCCCN)CSSC[C@@H](C(N)=O)NC(=O)[C@H](CCC(N)=O)NC1=O [Example 15, Lys-Trp-c(Cys-Ile-Gln-Cys)-NH2] (H-KWCIQC-NH2; disulfide 3-6) | 10.5
900 | CC[C@H](C)[C@@H]1NC(=O)[C@H](Cc2c[nH]c3ccccc23)NC(=O)[C@H](CCCCN)NC(=O)[C@H](CCC(N)=O)NC(=O)[C@@H](NC(=O)[C@H](CCCCN)NC(=O)[C@@H]2CCCN2C(=O)[C@H](CC(=O)O)NC(=O)[C@H](CC(C)C)NC(C)=O)CSSC[C@@H](C(N)=O)NC(=O)[C@H](CCC(N)=O)NC1=O [Example 22, Ac-Leu-Asp-Pro-Lys-c(Cys-Gln-Lys-Trp-Ile-Gln-Cys)-NH2] (Ac-LDPKCQKWIQC-NH2; disulfide 5-11) | 16.8
200 | CC[C@H](C)[C@@H]1NC(=O)[C@H](Cc2c[nH]c3ccccc23)NC(=O)[C@H](CCCCN)NC(=O)[C@H](CCC(N)=O)NC(=O)[C@H](CCCCN)NC(=O)[C@@H]2CCCN2C(=O)[C@H](CC(=O)O)NC(=O)[C@H](CC(C)C)NC(=O)[C@@H](NC(C)=O)CSSC[C@@H](C(N)=O)NC(=O)[C@@H](CCC(N)=O)NC1=O [Example 24, Ac-c(Cys-Leu-Asp-Pro-Lys-Gln-Lys-Trp-Ile-D-Gln-Cys)-NH2] (Ac-CLDPKQKWI[dQ]C-NH2; disulfide 1-11) | 33.8
30 | CC[C@@H](C)[C@H]1NC(=O)[C@H](Cc2c[nH]c3ccccc23)NC(=O)[C@H](CCCCN)NC(=O)[C@H](CCC(N)=O)NC(=O)[C@H](CCCCN)NC(=O)[C@@H]2CCCN2C(=O)[C@H](CC(=O)O)NC(=O)[C@H](CC(C)C)NC(=O)[C@@H](NC(C)=O)CSSC[C@@H](C(N)=O)NC(=O)[C@H](CCC(N)=O)NC1=O [Example 25, Ac-c(Cys-Leu-Asp-Pro-Lys-Gln-Lys-Trp-D-Ile-Gln-Cys)-NH2] (Ac-CLDPKQKW[dI]QC-NH2; disulfide 1-11) | 96.9
20 | CC[C@H](C)[C@@H]1NC(=O)[C@@H](Cc2c[nH]c3ccccc23)NC(=O)[C@H](CCCCN)NC(=O)[C@H](CCC(N)=O)NC(=O)[C@H](CCCCN)NC(=O)[C@@H]2CCCN2C(=O)[C@H](CC(=O)O)NC(=O)[C@H](CC(C)C)NC(=O)[C@@H](NC(C)=O)CSSC[C@@H](C(N)=O)NC(=O)[C@H](CCC(N)=O)NC1=O [Example 26, Ac-c(Cys-Leu-Asp-Pro-Lys-Gln-Lys-D-Trp-Ile-Gln-Cys)-NH2] (Ac-CLDPKQK[dW]IQC-NH2; disulfide 1-11) | 94.9
30 | CC[C@H](C)[C@@H]1NC(=O)[C@H](Cc2c[nH]c3ccccc23)NC(=O)[C@H](CCCCN)NC(=O)[C@H](CCC(N)=O)NC(=O)[C@@H](CCCCN)NC(=O)[C@@H]2CCCN2C(=O)[C@H](CC(=O)O)NC(=O)[C@H](CC(C)C)NC(=O)[C@@H](NC(C)=O)CSSC[C@@H](C(N)=O)NC(=O)[C@H](CCC(N)=O)NC1=O [Example 29, Ac-c(Cys-Leu-Asp-Pro-D-Lys-Gln-Lys-Trp-Ile-Gln-Cys)-NH2] (Ac-CLDP[dK]QKWIQC-NH2; disulfide 1-11) | 92.0

Source: patent US20110038885A1, “CHEMOKINE ANALOGS” (priority 2007, published 2011)
